In US20130164379A1, “NANOPARTICLE MICELLE COATED COMPOSITIONS” (priority 2011, published 2013):

Experiments:
[1] = system: U2OS-C3 osteosarcoma cells; assay: Immunoblotting for caspase-3 cleavage, thiostrepton and bortezomib; format: cell-based, human; settings: U2OS-C3, sub-apoptotic concentrations, 24 hr
Procedure: U2OS-C3 osteosarcoma, PA-1 ovarian, HCT116 colon and MiaPaca-2 pancreatic cancer cells were cultured in DMEM medium (Invitrogen). HCT-116 and MiaPaca-2 (shFOXM1) cells were cultured in DMEM medium (Invitrogen). MDA-MB231 (parental and shFOXM1) cells were grown in RPMI-1640 medium (Invitrogen). The media were supplemented with 10% fetal bovine serum (Atlanta Biologicals) and 1% penicillin-streptomycin (GIBCO) and the cells were kept at 37° C. in 5% CO2. Stable cell lines were generated by transduction of FOXM1 shRNA lentiviral particles (Sigma) followed by selection with puromycin (Sigma).
Actively dividing cells were seeded into a 100-mm plate at a density of 7.5×10^5 cells. […] Cells were lysed in IP buffer (20 mM HEPES, 1% Triton X-100, 150 mM NaCl, 1 mM EDTA, 1 mM EGTA, 100 mM NaF, 10 mM Na4P2O7, 1 mM sodium orthovanadate, 0.2 mM PMSF supplemented with protease inhibitor tablet and the protein concentration was determined using the Bio-Rad protein assay reagent. Fifty micrograms of the cell lysates were separated by electrophoresis on SDS-polyacrylamide mini gel and transferred to PVDF membrane Immunoblotting was performed with specific antibodies for cleaved caspase-3 (9664 Cell Signaling), FOXM1 (Dr. Costa) and β-actin (A5441, Sigma).

[2] = Solubility observation of thiostrepton in cell media; format: physicochemical; settings: DMSO-dissolved thiostrepton added to cell media
HCT-116 cells = assay: Detection of apoptosis by annexin V-PE/7AAD flow cytometry; format: cell-based, human; settings: HCT-116, 0.75 μM thiostrepton, 10 nM bortezomib, 24 hr; single drugs over the control
Procedure: The AnnexinV-PE staining kit (559763, BD Bio. Sci.) was used for the detection of apoptotic bodies following the vendor's protocol. This kit uses a dual-staining protocol in which the cells show fluorescence of Annexin V (apoptotic cells) and fluorescence of 7AAD (necrotic cells or late apoptotic cells). Briefly the tumor cells were grown at a density of 50% confluence in 100-mm culture dishes and were treated with varying concentrations of the drugs for 24 hr. The cells were trypsinized, washed with PBS, and were processed for labeling with annexinV-7AAD. The labeled cells were analyzed by flow cytometry.

purified proteasomes = molecular target: T1, purified proteasomes (Homo sapiens, UniProt P28072); assay: Proteasome activity assay on purified proteasomes; format: biochemical; settings: bortezomib 5 nM, thiostrepton 20 μM
T1 construct: purchased Enzo
Procedure: To assay proteasome inhibitor activities of proteasome inhibitors purified proteasomes, (0.5 μg, 1 μg/μL) were pre-incubated with inhibitors bortezomib (5 nM, 1 μL of 0.5 μM in DMSO) and/or thiostrepton (20 μM, 1 μL of 2 mM) in 10× assay buffer (10 μL) and H2O (88.5 μL) for 30 min at room temperature. Ac-YVAD-amc substrate (10 μL, 0.5 mM) was then added and the assay solution was incubated at […] for 2 hr, after which solutions were examined for fluorescence at excitation wavelength of 340 nm and emission wavelength of 505 nm. Values are represented as a % of the proteasome activity of non-inhibited proteasomes.

[3] = system: MDA-MB-231-luc solid breast tumor xenografts; assay: MDA-MB-231-luc breast tumor xenograft, combination with bortezomib; format: in vivo, athymic mice; settings: thiostrepton 30 mg/kg i.v., bortezomib 0.5 mg/kg i.p., 5 injections
Procedure: Animals were maintained and treated in accordance with the Animal Care and Use Committee of UIC. […] Treatment began once tumors reached sizes of 100 mm^3. After completion of the dosing schedule, animals were sacrificed and tumors were removed. Tumors were frozen in liquid N2 and kept at −80° C. until further analysis.
Treatments were performed once every two days (3 times a week), during which tumor volumes were monitored with calipers (l×w×h=volume, mm^3). Animals were also weighed once a week. After 5 treatments, animals were sacrificed and tumors removed.
For bioluminescence imaging, animals were injected intraperitonially with 100 mg luciferin/kg 10 min before animals were anaesthetized under isoflurane. Animals were then imaged for tumor-associated bioluminescence (IVIS, Xenogen), where relative units of bioluminescence were quantified as flux (photon/sec) and analyzed with Living Image software.

[4] = system: DEN/PB hepatocellular carcinoma mouse model
Procedure: The efficacy of nanoparticle micelle coated compositions containing thiostrepton in inhibiting tumor growth in DEN/PB hepatocellular carcinoma mouse model was evaluated.
Spontaneous induction of HCC was achieved by intraperitonial injection of the carcinogen diethylnitrosamine (DEN) into 2-day-old neonatal BALB/C mice. Carcinogenesis was further induced by continuing the mice on phenobarbital (PB)-doped drinking water (1 mg/mL). […] As a treatment schedule, animals were treated once every other day (3 times a week) for 5 weeks before sacrifice, after which livers were removed and examined for visible tumor growth (FIG. 14b).
Animal livers were then fixed in 4% paraformaldehyde, embedded in paraffin wax and the right lobe of embedded livers were sectioned and stained with H&E for quantitative analysis of carcinoma formation.

C=C(NC(=O)C(=C)NC(=O)c1csc(C2=N[C@@H]3c4csc(n4)[C@H]4NC(=O)c5csc(n5)[C@H]([C@](C)(O)[C@@H](C)O)NC(=O)[C@H]5CSC(=N5)/C(=C/C)NC(=O)[C@H]([C@@H](C)O)NC(=O)c5csc(n5)[C@]3(CC2)NC(=O)[C@H](C)NC(=O)C(=C)NC(=O)[C@H](C)NC(=O)[C@H]([C@@H](C)CC)N[C@@H]2C=Cc3c([C@H](C)O)cc(nc3[C@H]2O)C(=O)O[C@@H]4C)n1)C(N)=O [thiostrepton]
caspase-3 cleavage [1]: little or no caspase-3 cleavage
solubility [2]: highly insoluble
apoptosis (annexin V-PE/7AAD) (HCT-116 cells): 6.1%
inhibition of purified proteasomes (YVAD-amc cleavage) (purified proteasomes): only slightly hindered

CC(C)C[C@H](NC(=O)[C@H](Cc1ccccc1)NC(=O)c1cnccn1)B(O)O [bortezomib]
tumor size / tumor growth compared to non-treated tumors [3]: slight reduction in tumor growth
increase in tumor size compared to the first day of treatment ([3]; 15 days): 6 fold
body weights of treated animals compared to non-treated animals ([4]; 3 times a week for 5 weeks): did not decrease significantly
number of adenomas compared to livers from non-treated animals ([4]; single treatments, H&E sections): suppression of the number of adenomas
fewer number of visible liver tumors compared to non-treated control animals ([4]; thiostrepton-micelle 30 mg/kg i.v., bortezomib 0.5 mg/kg i.p., 3 times a week for 5 weeks): 50%
caspase-3 cleavage [1]: little or no caspase-3 cleavage
apoptosis (annexin V-PE/7AAD) (HCT-116 cells): 6.9%
inhibition of purified proteasomes (YVAD-amc cleavage) (purified proteasomes): only slightly hindered
